{
  "source": "patent US7223572B1",
  "about": "“Methylophilus methylotrophus having enhanced dihydrodipicolinate synthase and/or aspartokinase activity for L-amino acid production” (Ajinomoto Co., Inc., priority 1999, dated 2007)",
  "system": "AK",
  "assay": "AK activity of cell-free extracts, with and without L-lysine (method of Stadtman)",
  "assay_type": "biochemical, Methylophilus methylotrophus",
  "conditions": "L-lysine alone",
  "experimental": "Cell-free extracts were prepared from the Methylophilus methylotrophus AS1 strain containing the RSFD80 plasmid (also referred to as “AS1/RSFD80” hereinafter) and the Methylophilus methylotrophus AS1 strain containing the pRS plasmid (also referred to as “AS1/pRS” hereinafter), and AK activity was measured. The cell-free extracts (crude enzyme solutions) were prepared as follows. The AS1/RSFD80 strain and AS1/pRS strain were each inoculated to 121 production medium of the above composition containing 20 mg/L of streptomycin, cultured at 37° C. for 34 hours with shaking, and then calcium carbonate was removed and cells were harvested.\nThe bacterial cells obtained as described above were washed with 0.2% KCl under a condition of 0° C., suspended in 20 mM potassium phosphate buffer (pH 7) containing 10 mM MgSO4, 0.8 M (NH4)2SO4 and 0.03 M β-mercaptoethanol, and disrupted by sonication (0° C., 200 W, 10 minutes). […]\nThe measurement of AK activity was performed in accordance with the method of Stadtman (Stadtman, E. R., Cohen, G. N., LeBras, G., and Robichon-Szulmajster, H., J. Biol. Chem., 236, 2033 (1961)). […] The reaction solution was centrifuged, and absorbance of the supernatant was measured at 540 nm. […] When the enzymatic activity was measured, L-lysine was added to the enzymatic reaction solution at various concentrations to examine degree of inhibition by L-lysine.",
  "data": [
    {"smiles": "NCCCC[C@H](N)C(=O)O", "note": "[L-lysine]", "values": [
      {"measurement": "inhibition of AK originally retained by the AS1 strain", "result": "not inhibited"}
    ]}
  ]
}
